The results in this text go back to US7442802B2, “Cyclooxygenase-2 selective inhibitors, compositions and methods of use” (NitroMed, Inc., priority 2002, dated 2008).

One experiment concerns the target T1, COX-1 (Homo sapiens, UniProt P23219).
T1 construct: endogenous in cells; host or cells: heparinised human whole blood from donors, stimulated with the calcium ionophore A23187
The experiment is described as follows: Human COX-1 enzyme activity in human whole blood (A23187-stimulated, thromboxane B2 EIA). It is filed as cell-based. The note with it: 100 μM, human whole blood, A23187 stimulation; for inhibition at 100 µM: read-out: COX-1 Inhibition (% at 100 μM). How it is done:
(§1) The blood was transported to the laboratory on ice packs and used within 1.5 hours of collection. Upon receipt in the laboratory, the blood was allowed to come to room temperature for 15 minutes prior to distribution in 1 mL aliquots per well of 24 well tissue culture plates. […] Test compounds were dissolved in DMSO, at 1000 fold the final desired concentration, and further diluted, as indicated, in DMSO. One μL of each dilution of the test compound was added per well, in duplicate wells; wells not receiving test compound (e.g., basal, background or control wells) received 1 μL DMSO. […] Louis, Mo., Catalogue No. […] Louis, Mo., Catalogue No. […] (Again, basal, background or control wells not stimulated with A23187 received 1 μL of DMSO.) At 5 hours after the addition of the test compound, all incubations were terminated by placement on ice and the addition of 2 mM EGTA (100 μL of 20 mM EGTA, tetrasodium, in PBS (phosphate buffered saline) without Ca^++ and Mg^++, pH 7.2)). […] One hundred μL of plasma was removed from each blood sample and added to 1 mL of methanol in new 15 mL polypropylene centrifuge tubes, vortexed, and stored overnight at -20° C. […] The samples were assayed for thromboxane B2 using EIA kits supplied by Cayman Chemical Co. […] The % inhibition for COX-1 and COX-2 enzyme activity in human whole blood by the test compounds, at the indicated concentrations, are given in Table 1.

The target of another experiment is T2, COX-2 (Homo sapiens, UniProt P35354).
T2 construct: To induce COX-2, lipopolysaccharide (LPS) from E. coli; endogenous in cells; host or cells: heparinised human whole blood from donors, with COX-2 induced by E. coli LPS
T2 sequence (P35354 18-604): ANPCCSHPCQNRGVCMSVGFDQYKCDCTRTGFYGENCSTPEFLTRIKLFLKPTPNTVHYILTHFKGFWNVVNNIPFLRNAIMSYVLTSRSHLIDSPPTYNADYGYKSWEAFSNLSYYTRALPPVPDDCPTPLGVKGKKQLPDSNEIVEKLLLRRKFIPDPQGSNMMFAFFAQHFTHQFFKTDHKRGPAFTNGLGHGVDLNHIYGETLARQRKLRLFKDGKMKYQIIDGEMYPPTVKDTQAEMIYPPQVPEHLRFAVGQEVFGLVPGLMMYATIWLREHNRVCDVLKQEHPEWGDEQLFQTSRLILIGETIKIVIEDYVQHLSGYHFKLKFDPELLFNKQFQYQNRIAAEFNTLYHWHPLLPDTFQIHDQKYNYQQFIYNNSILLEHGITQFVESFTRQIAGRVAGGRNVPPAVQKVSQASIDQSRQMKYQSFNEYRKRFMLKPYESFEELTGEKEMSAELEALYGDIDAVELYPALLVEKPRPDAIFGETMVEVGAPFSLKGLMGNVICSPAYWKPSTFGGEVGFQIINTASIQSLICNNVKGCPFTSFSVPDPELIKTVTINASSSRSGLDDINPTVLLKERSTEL
The experiment is described as follows: Human COX-2 enzyme activity in human whole blood (LPS-induced, thromboxane B2 EIA). The format is cell-based. As to conditions: human whole blood, LPS induction; for inhibition at 1 µM: read-out: COX-2 Inhibition (% at 1 μM); for inhibition at 10 µM: read-out: COX-2 Inhibition (% at 10 μM). The protocol:
as §1

T1 sequence (P23219 24-599): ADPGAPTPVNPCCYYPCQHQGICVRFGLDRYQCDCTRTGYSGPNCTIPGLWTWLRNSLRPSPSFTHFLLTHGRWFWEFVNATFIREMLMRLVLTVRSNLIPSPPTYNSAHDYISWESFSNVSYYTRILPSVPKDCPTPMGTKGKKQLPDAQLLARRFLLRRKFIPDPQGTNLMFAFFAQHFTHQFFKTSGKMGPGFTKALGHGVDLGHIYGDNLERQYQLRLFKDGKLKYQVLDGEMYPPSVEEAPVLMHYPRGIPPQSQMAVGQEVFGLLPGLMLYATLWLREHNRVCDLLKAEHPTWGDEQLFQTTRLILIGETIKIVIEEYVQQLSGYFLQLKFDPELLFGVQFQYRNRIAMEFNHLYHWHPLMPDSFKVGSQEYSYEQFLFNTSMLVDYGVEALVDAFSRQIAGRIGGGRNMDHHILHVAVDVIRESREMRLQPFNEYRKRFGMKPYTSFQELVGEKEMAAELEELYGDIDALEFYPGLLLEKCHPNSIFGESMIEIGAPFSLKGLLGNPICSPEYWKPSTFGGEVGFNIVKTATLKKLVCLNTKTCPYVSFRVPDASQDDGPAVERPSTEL

One may read the inhibition as the change of the read-out against control, counted positive when it falls. As to `Cc1ccc(-n2nc(C(=O)CCCO)cc2-c2ccc(S(C)(=O)=O)cc2)cc1` [Example 12d, 4-Hydroxy-1-(1-(4-methylphenyl)-5-(4-(methylsulfonyl)phenyl)pyrazol-3-yl)butan-1-one], at COX-1, the inhibition at 100 µM was 0%. Besides, at COX-2, the inhibition at 1 µM is 15% and the inhibition at 10 µM was 45%.

For `CS(=O)(=O)c1ccc(-c2cc(C(=O)CCCO)nn2-c2ccc(F)cc2)cc1` [Example 13d, 1-(1-(4-Fluorophenyl)-5-(4-(methylsulfonyl)phenyl)pyrazol-3-yl)-4-hydroxybutan-1-one], at COX-1, the inhibition at 100 µM is 0%. Further, on COX-2, the inhibition at 1 µM stood at 25% and the inhibition at 10 µM was 25%.

In the case of `CS(=O)(=O)c1ccc(-c2cc(C(=O)CCCO)nn2-c2ccc(Br)cc2)cc1` [Example 14d, 1-(1-(4-Bromophenyl)-5-(4-(methylsulfonyl)phenyl)pyrazol-3-yl)-4-hydroxybutan-1-one], the inhibition at 100 µM at COX-1 was determined as 0%. Also, on COX-2, the inhibition at 1 µM was 15% and the inhibition at 10 µM is 70%.

Consider `CS(=O)(=O)c1ccc(-c2cc(COCCO)nn2C2CCCCC2)cc1` [Example 15d, 1-(1-Cyclohexyl-3-((2-hydroxyethoxy)methyl)pyrazol-5-yl)-4-(methylsulfonyl)benzene], for which the inhibition at 100 µM on COX-1 was 10%. Further, on COX-2, the inhibition at 1 µM came out at 0% and the inhibition at 10 µM worked out at 40%.

As to `CS(=O)(=O)c1ccc(-c2cc(COCCO[N+](=O)[O-])nn2C2CCCCC2)cc1` [Example 15e, 1-(1-Cyclohexyl-3-((2-(nitrooxy)ethoxy)methyl)pyrazol-5-yl)-4-(methylsulfonyl)benzene], at COX-1, the inhibition at 100 µM was 35%. Also, at COX-2, the inhibition at 1 µM was 35% and the inhibition at 10 µM was determined as 75%.

Turning to `CS(=O)(=O)c1ccc(-c2cc(COCCCO)nn2C2CCCCC2)cc1` [Example 16b, 1-(1-Cyclohexyl-3-((3-hydroxypropoxy)methyl)pyrazol-5-yl)-4-(methylsulfonyl)benzene], the inhibition at 100 µM on COX-1 was 10%. At COX-2, the inhibition at 1 µM came out at 20% and the inhibition at 10 µM is 55%.

In the case of `CS(=O)(=O)c1ccc(-c2cc(COCCCO[N+](=O)[O-])nn2C2CCCCC2)cc1` [Example 16c, 1-(1-Cyclohexyl-3-((3-(nitrooxy)propoxy)methyl)pyrazol-5-yl)-4-(methylsulfonyl)benzene], at COX-1, the inhibition at 100 µM is 10%. Also, on COX-2, the inhibition at 1 µM is 45% and the inhibition at 10 µM is 85%.

On to `CS(=O)(=O)c1ccc(-c2cc(COc3cccc(CO)c3)nn2C2CCCCC2)cc1` [Example 17b, 1-(1-Cyclohexyl-3-((3-(hydroxymethyl)phenoxy)methyl)pyrazol-5-yl)-4-(methylsulfonyl)benzene], for which, on COX-1, the inhibition at 100 µM was determined as 80%. Besides, on COX-2, the inhibition at 1 µM turned out to be 135% and the inhibition at 10 µM came to 100%.

Turning to `CS(=O)(=O)c1ccc(-c2cc(COc3cccc(CO[N+](=O)[O-])c3)nn2C2CCCCC2)cc1` [Example 17d, 1-(1-Cyclohexyl-3-((3-((nitrooxy)methyl)phenoxy)methyl)pyrazol-5-yl)-4-(methylsulfonyl)benzene], the inhibition at 100 µM on COX-1 came to 25%. Besides, on COX-2, the inhibition at 1 µM is 0% and the inhibition at 10 µM is 25%.

Regarding `CS(=O)(=O)c1ccc(-c2cc(COCCCO)nn2-c2ccc(F)cc2)cc1` [Example 18d, 1-(1-(4-Fluorophenyl)-3-((3-hydroxypropoxy)methyl)pyrazol-5-yl)-4-(methylsulfonyl)benzene], the inhibition at 100 µM on COX-1 was 40%. On COX-2, the inhibition at 1 µM is 45% and the inhibition at 10 µM was determined as 90%.

For the compound `CS(=O)(=O)c1ccc(-c2cc(COCCCO[N+](=O)[O-])nn2-c2ccc(F)cc2)cc1` [Example 18e, 1-(1-(4-Fluorophenyl)-3-((3-(nitrooxy)propoxy)methyl)pyrazol-5-yl)-4-(methylsulfonyl)benzene], on COX-1, the inhibition at 100 µM came out at 80%. Besides, on COX-2, the inhibition at 1 µM came to 55% and the inhibition at 10 µM was 95%.

Consider `CC(O)CCOCc1cc(-c2ccc(S(C)(=O)=O)cc2)n(-c2ccccc2)n1` (stereo not drawn) [Example 19b, 1-(3-((3-Hydroxybutoxy)methyl)-1-phenylpyrazol-5-yl)-4-(methylsulfonyl)benzene], for which the inhibition at 100 µM at COX-1 was 40%. Also, at COX-2, the inhibition at 1 µM is 20% and the inhibition at 10 µM amounted to 100%.

For the compound `CC(CCOCc1cc(-c2ccc(S(C)(=O)=O)cc2)n(-c2ccccc2)n1)O[N+](=O)[O-]` (stereo not drawn) [Example 19c, 4-(Methylsulfonyl)-1-(3-((3-(nitrooxy)butoxy)methyl)-1-phenylpyrazol-5-yl)benzene], on COX-1, the inhibition at 100 µM worked out at 35%. Further, at COX-2, the inhibition at 1 µM is 20% and the inhibition at 10 µM worked out at 30%.

For the compound `CS(=O)(=O)c1ccc(-c2cc(/C=C/CCO)nn2C2CCCCC2)cc1` [Example 21b], the “COX-1 Inhibition (% at 100 μM)” value at COX-1 was found to be 10%. For the same compound, on COX-2, the “COX-2 Inhibition (% at 1 μM)” value turned out to be 10% and the “COX-2 Inhibition (% at 10 μM)” value amounted to 25%.

For the compound `CS(=O)(=O)c1ccc(-c2cc(/C=C/CCO[N+](=O)[O-])nn2C2CCCCC2)cc1` [Example 21c, 1-(3-((1E)-4-(Nitrooxy)but-1-enyl)-1-cyclohexylpyrazol-5-yl)-4-(methylsulfonyl)benzene], the inhibition at 100 µM at COX-1 is 60%. At COX-2, the inhibition at 1 µM was 45% and the inhibition at 10 µM came to 90%.

`CS(=O)(=O)c1ccc(-c2cc(C(=O)CCCCCO)nn2C2CCCCC2)cc1` [Example 22c, 1-(1-Cyclohexyl-5-(4-(methylsulfonyl)phenyl)-pyrazol-3-yl)-6-hydroxyhexan-1-one]: the inhibition at 100 µM at COX-1 was 40%. Moreover, on COX-2, the inhibition at 1 µM is 25% and the inhibition at 10 µM was found to be 80%.

For the compound `CS(=O)(=O)c1ccc(-c2cc(C(=O)CCCCCO[N+](=O)[O-])nn2C2CCCCC2)cc1` [Example 22d], the “COX-1 Inhibition (% at 100 μM)” value on COX-1 is given as 75%. Moreover, at COX-2, the “COX-2 Inhibition (% at 1 μM)” value came to 30% and the “COX-2 Inhibition (% at 10 μM)” value was 30%.

On to `CS(=O)(=O)c1ccc(-c2cc(C(=O)CCCO)nn2-c2ccc(C(F)(F)F)cc2)cc1` [Example 23d, 4-Hydroxy-1-(5-(4-(methylsulfonyl)phenyl)-1-(4-(trifluoromethyl)-phenyl)pyrazol-3-yl)butan-1-one], for which, at COX-1, the inhibition at 100 µM was -20%. Moreover, at COX-2, the inhibition at 1 µM is 0% and the inhibition at 10 µM turned out to be 10%.

For `COc1ccc(-n2nc(C(=O)CCCO)cc2-c2ccc(S(C)(=O)=O)cc2)cc1` [Example 24d, 4-Hydroxy-1-(1-(4-methoxyphenyl)-5-(4-(methylsulfonyl)phenyl)-pyrazol-3-yl)butan-1-one], the inhibition at 100 µM on COX-1 came to 85%. In addition, on COX-2, the inhibition at 1 µM turned out to be 50% and the inhibition at 10 µM was 85%.

Turning to `CS(=O)(=O)c1ccc(-n2nc(/C=C\CCO)cc2-c2cccnc2)cc1` [Example 25e, 1-(3-((1Z)-4-Hydroxybut-1-enyl)-5-(3-pyridnyl)pyrazolyl)-4-(methylsulfonyl)benzene], the “COX-1 Inhibition (% at 100 μM)” value at COX-1 is on record as 10%. Also, at COX-2, the “COX-2 Inhibition (% at 1 μM)” value is 15% and the “COX-2 Inhibition (% at 10 μM)” value stood at 0%.

Take `NS(=O)(=O)c1ccc(-c2c(-c3ccccc3)noc2COCCCO)cc1` [Example 26a]: at COX-1, the “COX-1 Inhibition (% at 100 μM)” value was 25%. Besides, at COX-2, the “COX-2 Inhibition (% at 1 μM)” value is 50% and the “COX-2 Inhibition (% at 10 μM)” value is 85%.

Turning to `NS(=O)(=O)c1ccc(-c2c(-c3ccccc3)noc2COCCCO[N+](=O)[O-])cc1` [Example 26b], the “COX-1 Inhibition (% at 100 μM)” value at COX-1 is on record as 70%. For the same compound, at COX-2, the “COX-2 Inhibition (% at 1 μM)” value was 55% and the “COX-2 Inhibition (% at 10 μM)” value is 100%.

Regarding `NS(=O)(=O)c1ccc(-c2c(-c3ccccc3)noc2COCCO)cc1` [Example 27a], the “COX-1 Inhibition (% at 100 μM)” value at COX-1 is 45%. At COX-2, the “COX-2 Inhibition (% at 1 μM)” value turned out to be 40% and the “COX-2 Inhibition (% at 10 μM)” value is given as 90%.
